Assay results reported in US20260355137A1, “NOVEL OPHTHALMIC FORMULATION” (FERTIS INDIA PVT LTD, priority 2022, published 2026).
“Also recorded” adds a separate entry of the source.

Tests used:
Assay type in all cases: in vivo, New Zealand rabbit
[1] = test system: cataract induced left eye; experiment: Macroscopic examination, cataract induced left eye (cinnamic acid derivatives, Tables 10-11)
Description: (§1) An illustrative ophthalmic formulation for treatment of eye disease is set forth below: The formulations provided herein below are tested in cataract induced New Zealand rabbits, and the results are discussed herein below.
(§2) Cataract was induced by injecting 0.5% Methyl Cellulose, which is replaced by aqueous humor in the rabbit eye (i.e., 0.2 mL of Aqueous humor was withdrawn and the same 0.2 mL of 0.5% Methyl cellulose was injected as a replacement). Cataract was observed within 3-4 days of 0.5% Methyl cellulose replacement. Cataract induction was performed to left eye and right eye was served as a control.
(§3) Rabbits were observed by ophthalmoscope and slit lamp once in three days for cataract confirmation. Intraocular pressure was measured with a tonometer once in three days for the confirmation of glaucoma.

[2] = test system: cataract induced left eye: lens; experiment: Microscopic observations (histopathology) of lens (Table 12); settings: left eye (cataract induced)
Description: as §1, §2
(§4) All surviving animals were euthanized on Day 29 by overdose of Thiopental Sodium. Before scheduled euthanasia, the animals were fasted overnight (water allowed) and terminal body weights were recorded. Animals were subjected to detailed macroscopic observation during necropsy. Both right (untreated/uninduced) and left (treated/induced) eyes were collected and cornea and lens were separated, preserved in Davidson fluid. Cornea and lens selected for histopathological evaluation were processed, embedded and sections were cut at 3-5 μm thickness, Sections were placed on grease-free slides and stained with Hematoxylin and Eosin. A 5-step grading system of minimum, mild, moderate, marked and severe will be used to rank microscopic findings for comparison among groups. Data was compiled based on incidences and severity of changes.

[3] = test system: intraocular pressure, glaucoma-induced left eye; experiment: Intraocular pressure, tonometer (Table 9); settings: 0.5%, Table 9 G5 group
Description: as §2, §3
(§5) All test formulations provided as above were administered topically as a therapeutic treatment. A total of 100 μL/Rabbit of placebo or Rosmarinic acid formulations (F1, F2, F3 and F4) were instilled in the 50 μL/eye (left) in two divided doses for 28 days

[4] = test system: intraocular pressure, induced left eye; experiment: Intraocular pressure, tonometer (Table 13); set-up: unit not given beside the values; settings: left eye induced/treated
Description: as §2, §3
Intra-ocular pressures were measured in animals in each group once in three days using a Tonometer. The readings were documented for each eye separately.

[5] = test system: cataract induced left eye: lens and cornea; experiment: Microscopic observations (histopathology) of lens and cornea (Tables 4-8); settings: 0.5% rosmarinic acid, Table 8, G5 group
Description: as §1, §2, §5, §4

[6] = test system: cataract induced New Zealand rabbits (left eye); experiment: Macroscopic observations, cataract induced left eye (study of rosmarinic acid formulations, Tables 2-3); settings: ocular 100 μL/rabbit, 28 days, F1 0.25%, F2 0.5%, F3 1.0% rosmarinic acid each with N-acetyl carnosine, F4 0.5% without
Description: as §1
(§6) The following preclinical studies were conducted in rabbit model to test the efficacy of various active ingredients.
as §2, §3
Test Item formulations were administered through ocular route. Ocular route has been chosen as it is the intended therapeutic route of administration in humans.
All test formulations provided as above were administered topically as a therapeutic treatment. A total of 100 μL/Rabbit of placebo or Rosmarinic acid formulations (F1, F2, F3 and F4) were instilled in the 50 μL/eye (left) in two divided doses for 28 days […]

[7] = test system: cataract and intraocular pressure/glaucoma in induced rabbit eye; experiment: Overall efficacy in cataract reduction and reducing intraocular pressure
Description: as §1, §6, §2, §3

[8] = left eye (cataract induced), macroscopic

O=C(/C=C/c1ccc(O)c(O)c1)O[C@H](Cc1ccc(O)c(O)c1)C(=O)O [Rosmarinic acid]
macroscopic examination (in words) ([1]; Table 11, G2 0.5% rosmarinic acid, G6 0.25% caffeic acid): minimal corneal opacity in some animals, with no abnormalities in one
Opacity, cornea and red discoloured, with diffuse opacity: Minimal, incidence [1, 8]: 1/6
Opacity, cornea, diffuse: Mild, incidence [1, 8]: 1/6
Opacity, cornea, diffuse: Minimal, incidence [1, 8]: 3/6
No Abnormality Detected, incidence ([1]; left eye (cataract induced), macroscopic, animals affected/6): 1/6
Within Normal Histological Limits, incidence [2]: 0/6
Epithelial proliferation, incidence ([2]; lens): 2/6
Epithelial proliferation: Absent, incidence ([2]; lens): 4/6
Lenticular Degeneration, incidence ([2]; lens): 4/6
Liquefaction, incidence ([2]; lens): 4/6
Liquefaction: Absent, incidence ([2]; lens): 2/6
Epithelial proliferation: Marked, incidence ([2]; lens, number of animals): 1
Epithelial proliferation: Minimal, incidence ([2]; lens, number of animals): 1
Liquefaction: Marked, incidence ([2]; lens, number of animals): 1
Liquefaction: Minimal, incidence ([2]; lens, number of animals): 3
intraocular pressure following treatment ([3]; 28-day treatment regimen): 20.06 mmHg
intraocular pressure initially measured ([3]; within six days): 59.72 mmHg
Intraocular Pressure, mean ([4]; Day 3): 83.15
Intraocular Pressure, mean ([4]; Day 6): 77.55
Intraocular Pressure, mean ([4]; Day 9): 78.72
Intraocular Pressure, mean ([4]; Day 12): 66.83
Intraocular Pressure, mean ([4]; Day 15): 48.83
Intraocular Pressure, mean ([4]; Day 18): 48.48
Intraocular Pressure, mean ([4]; Day 21): 46.77
Intraocular Pressure, mean ([4]; Day 24): 44.55
Intraocular Pressure, mean ([4]; Day 27): 42.62
Intraocular Pressure, mean ([4]; Day 30): 23.27
Intraocular Pressure, mean ([4]; Day 33): 18.45↓↓
corneal edema (in words) [5]: five animals' corneal edema was within histological limits and one animal with minimal corneal edema
epithelial proliferation in lens (in words) [5]: In five animals' epithelial proliferation in lens was within histological limits; also recorded: Only one animal displayed minimal epithelial proliferation
liquefaction in the lens (in words) [5]: in four animals, liquefaction in the lens is within histological limits; also recorded: in two animals, minimal liquefaction was observed
Macroscopic inference (Left Eye) [6]: no abnormalities found in all the 6 animals
overall efficacy (in words) ([7]; 0.5% rosmarinic acid, G5 of first study): demonstrates its efficacy not only in preventing lens liquefaction, epithelial proliferation, and corneal edema and treating cataract but also in reducing intraocular pressure
overall efficacy (in words) ([7]; second study, 0.5% rosmarinic acid (G2), 0.25% caffeic acid (G6)): shown to be the best; also recorded: superior efficacy
